Measurements published in patent US8431564B2 (Merck Sharp & Dohme B.V., priority 2009, dated 2013).

molecular target: T1, human FSH receptor (Homo sapiens, UniProt P23945); test: Agonistic activity at the human FSH receptor expressed in CHO cells (CRE-luciferase reporter); assay type: cell-based; settings: CHO cells stably transfected with human FSH receptor and CRE/luciferase reporter; 4 hours incubation; pEC50 is -log EC50; read-out: hFSHRago (CHO luc) pEC50 (converted)
T1 construct: expressed in transfected cells; host or cells: CHO (Chinese Hamster Ovary) cells, stably transfected, cotransfected with CRE-luciferase reporter
T1 sequence (P23945 18-695): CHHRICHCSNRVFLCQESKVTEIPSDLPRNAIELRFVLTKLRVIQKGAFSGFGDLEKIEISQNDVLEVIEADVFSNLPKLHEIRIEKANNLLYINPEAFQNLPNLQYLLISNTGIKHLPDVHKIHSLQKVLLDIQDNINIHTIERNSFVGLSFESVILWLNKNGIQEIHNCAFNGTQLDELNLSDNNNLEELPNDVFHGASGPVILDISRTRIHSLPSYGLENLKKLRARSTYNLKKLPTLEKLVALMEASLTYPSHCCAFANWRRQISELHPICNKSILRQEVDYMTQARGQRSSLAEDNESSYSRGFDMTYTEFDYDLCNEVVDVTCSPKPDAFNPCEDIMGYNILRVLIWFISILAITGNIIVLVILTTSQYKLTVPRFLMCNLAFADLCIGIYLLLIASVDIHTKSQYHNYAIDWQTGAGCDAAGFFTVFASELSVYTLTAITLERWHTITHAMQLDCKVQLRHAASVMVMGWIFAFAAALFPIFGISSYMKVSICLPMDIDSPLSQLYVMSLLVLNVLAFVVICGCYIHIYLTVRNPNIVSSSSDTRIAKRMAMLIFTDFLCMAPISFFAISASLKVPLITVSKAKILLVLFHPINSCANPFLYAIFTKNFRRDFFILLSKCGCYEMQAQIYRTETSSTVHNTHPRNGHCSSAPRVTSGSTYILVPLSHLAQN
From the text: The term EC50 means the concentration of the test compound that elicits half-maximal (50%) stimulation compared to the compound's maximally attainable effect. pEC50 is the negative log of EC50. The values can be determined e.g. in a cell line transfected with a FSH receptor gene and cotransfected with a cAMP responsive element/promoter directing the expression of a reporter gene. For the determination a software program such as MathIQ (version 2.0, ID Business Solutions Limited) can be used.
Agonistic activity of the compounds at the human FSH receptor was determined in Chinese Hamster Ovary (CHO) cells stably transfected with the human FSH receptor and cotransfected with a cAMP responsive element (CRE)/promotor directing the expression of a firefly luciferase reporter gene. Binding of the compounds to the Gs protein-coupled FSH receptor will result in an increase of cAMP, which in turn will induce an increased transactivation of the luciferase reporter. Cells (7,500 cells/well of a 384 well plate) were incubated in Dulbecco' minimal essential F12 modified medium (Invitrogen), supplemented with 1 μg/ml bovine insulin, 5 μg/ml human apo-transferrin, 80 U/ml penicillin G and 80 μg/ml streptomycin with the test compounds (concentration between 0.0316 nM and 10.0 μM) in duplicate in a humidified atmosphere (95%) at 5-7% CO2 and 37° C. The final concentration of DMSO was 1%. After 4 hours of incubation, plates were allowed to adjust to room temperature for 1 hour. Then, Luclite (PerkinElmer) solution was added to the wells and cells were allowed to lyse for at least 1 hour at room temperature. Subsequently, luciferase activity was measured in a luminescence counter. The signal is expressed as counts per second (cps). The EC50 (concentration of the test compound that elicits half-maximal (50%) luciferase stimulation compared to the compound's maximally attainable effect) and efficacy values (maximal effect of the test compound as percentage of the maximal effect of recombinant human FSH) of the compounds were determined using the software program MathIQ (version 2.0, ID Business Solutions Limited). pEC50 data (pEC50 is −log EC50) are indicated at the synthesis examples.

EC50 [nM] | SMILES
4.07 | COc1cc2c(cc1-n1cc(C[C@H](O)CO)nn1)-c1c(-c3cccs3)c3c(n1CC2)C(=O)N(C(C)(C)C)CCCC3 [Compound 20f, (S)-9-tert-butyl-14-(thien-2-yl)-2-(4-(2,3-dihydroxypropyl)-1H-1,2,3-triazol-1-yl)-3-methoxy-5,6,10,11,12,13-hexahydroazocino[4′,3′:4,5]pyrrolo[2,1-a]isoquinolin-8(9H)-one]
3.24 | COc1cc2c(cc1-n1cc(C[C@@H](O)CO)nn1)-c1c(-c3cccs3)c3c(n1CC2)C(=O)N(C(C)(C)C)CCCC3 [Compound 20g, (R)-9-tert-butyl-14-(thien-2-yl)-2-(4-(2,3-dihydroxypropyl)-1H-1,2,3-triazol-1-yl)-3-methoxy-5,6,10,11,12,13-hexahydroazocino[4′,3′:4,5]pyrrolo[2,1-a]isoquinolin-8(9H)-one]
1.78 | COc1cc2c(cc1C#N)-c1c(-c3cccs3)c3c(n1CC2)C(=O)N(C(C)(C)C)CCCC3 [Compound 20h, 9-tert-butyl-14-(thien-2-yl)-3-methoxy-5,6,10,11,12,13-hexahydroazocino[4′,3′:4,5]pyrrolo[2,1-a]isoquinolin-8(9H)-one-2-carbonitrile]
5.5 | COc1cc2c(cc1[C@H](O)[C@@H](O)CO)-c1c(-c3cccs3)c3c(n1CC2)C(=O)N(C(C)(C)C)CCCC3 [Compound 21h, (1S,2S)-1-(9-tert-butyl-14-(thien-2-yl)-3-methoxy-5,6,10,11,12,13-hexahydroazocino[4′,3′:4,5]pyrrolo[2,1-a]isoquinolin-8(9H)-on-2-yl)propane-1,2,3-triol]
0.251 | COc1cc2c(cc1CCCO)-c1c(-c3cccs3)c3c(n1CC2)C(=O)N(C(C)(C)C)CCCC3 [Compound 21j, 3-(9-tert-butyl-14-(thien-2-yl)-3-methoxy-5,6,10,11,12,13-hexahydroazocino[4′,3′:4,5]pyrrolo[2,1-a]isoquinolin-8(9H)-on-2-yl)propan-1-ol]
4.68 | COc1cc2c(cc1NC(=O)CN(C)C)-c1c(-c3cccs3)c3c(n1CC2)C(=O)N(C(C)(C)C)CCCC3 [Compound 22b, 2-dimethylamino-N-(9-tert-butyl-14-(thien-2-yl)-3-methoxy-5,6,10,11,12,13-hexahydroazocino[4′,3′:4,5]pyrrolo[2,1-a]isoquinolin-8(9H)-on-2-yl)acetamide]
1.26 | COc1cc2c(cc1NC(=O)CN1CC(O)C1)-c1c(-c3cccs3)c3c(n1CC2)C(=O)N(C(C)(C)C)CCCC3 [Compound 22c, 2-(3-hydroxyazetidin-1-yl)-N-(9-tert-butyl-14-(thien-2-yl)-3-methoxy-5,6,10,11,12,13-hexahydroazocino[4′,3′:4,5]pyrrolo[2,1-a]isoquinolin-8(9H)-on-2-yl)acetamide]
3.31 | CCN1CCN(CC(=O)Nc2cc3c(cc2OC)CCn2c4c(c(-c5cccs5)c2-3)CCCCN(C(C)(C)C)C4=O)CC1 [Compound 22d, 2-(4-ethylpiperazin-1-yl)-N-(9-tert-butyl-14-(thien-2-yl)-3-methoxy-5,6,10,11,12,13-hexahydroazocino[4′,3′:4,5]pyrrolo[2,1-a]isoquinolin-8(9H)-on-2-yl)acetamide]
245 | CC[S+]([O-])c1cc2c(cc1OC)CCn1c3c(c(Br)c1-2)CCCCN(C(C)(C)C)C3=O (centres unmarked) [Compound 23d, 9-tert-butyl-14-bromo-2-ethylsulfinyl-3-methoxy-5,6,10,11,12,13-hexahydroazocino[4′,3′:4,5]pyrrolo[2,1-a]isoquinolin-8(9H)-one]
155 | CCS(=O)(=O)c1cc2c(cc1OC)CCn1c3c(c(Br)c1-2)CCCCN(C(C)(C)C)C3=O [Compound 23e, 9-tert-butyl-14-bromo-2-ethylsulfonyl-3-methoxy-5,6,10,11,12,13-hexahydroazocino[4′,3′:4,5]pyrrolo[2,1-a]isoquinolin-8(9H)-one]
1.82 | CCS(=O)(=O)c1cc2c(cc1OC)CCn1c3c(c(-c4cccs4)c1-2)CCCCN(C(C)(C)C)C3=O [Compound 23f, 9-tert-butyl-14-(thien-2-yl)-2-ethylsulfonyl-3-methoxy-5,6,10,11,12,13-hexahydroazocino[4′,3′:4,5]pyrrolo[2,1-a]isoquinolin-8(9H)-one]
10.7 | CCS(=O)(=O)c1cc2c(cc1OC)CCn1c3c(c(-c4cncs4)c1-2)CCCCN(C(C)(C)C)C3=O [Compound 23g, 9-tert-butyl-14-(thiazol-5-yl)-2-ethylsulfonyl-3-methoxy-5,6,10,11,12,13-hexahydroazocino[4′,3′:4,5]pyrrolo[2,1-a]isoquinolin-8(9H)-one]
389 | COc1cc2c(cc1-c1cccnc1)-c1c(-c3cccs3)c3c(n1CC2)C(=O)N(C(C)(C)C)CCC(C)(C)C3 [Compound 24k, 9-tert-butyl-12,12-dimethyl-3-methoxy-2-pyridin-3-yl-14-(2-thienyl)-5,6,10,11,12,13-hexahydroazocino[4′,3′:4,5]pyrrolo[2,1-a]isoquinolin-8(9H)-one]
6.31 | COc1cc2c(cc1-c1cccnc1)-c1c(C3=CCOCC3)c3c(n1CC2)C(=O)N(C(C)(C)C)CCCC3 [Compound 25c, 9-tert-butyl-2-(3-pyridyl)-14-(3,6-dihydro-2H-pyran-4-yl)-3-methoxy-5,6,10,11,12,13-hexahydroazocino[4′,3′:4,5]pyrrolo[2,1-a]isoquinolin-8(9H)-one]
10.7 | COc1cc2c(cc1-c1cccnc1)-c1c(C3=CCSCC3)c3c(n1CC2)C(=O)N(C(C)(C)C)CCCC3 [Compound 25d, 9-tert-butyl-2-(3-pyridyl)-14-(3,6-dihydro-2H-thiopyran-4-yl)-3-methoxy-5,6,10,11,12,13-hexahydroazocino[4′,3′:4,5]pyrrolo[2,1-a]isoquinolin-8(9H)-one]
1 | COC(=O)c1cc2c(cc1OC)CCn1c3c(c(-c4cccs4)c1-2)CCCCN(C(C)(C)C)C3=O [Compound 26a, methyl 9-tert-butyl-3-methoxy-14-(thiophen-2-yl)-5,6,10,11,12,13-hexahydroazocino[4′,3′:4,5]pyrrolo[2,1-a]isoquinolin-8(9H)-one-2-carboxylate]
44.7 | COc1cc2c(cc1C(=O)O)-c1c(-c3cccs3)c3c(n1CC2)C(=O)N(C(C)(C)C)CCCC3 [Compound 26b, 9-tert-butyl-3-methoxy-14-(thiophen-2-yl)-5,6,10,11,12,13-hexahydroazocino[4′,3′:4,5]pyrrolo[2,1-a]isoquinolin-8(9H)-one-2-carboxylic acid]
1.78 | COc1cc2c(cc1C(=O)NCCN1CCOCC1)-c1c(-c3cccs3)c3c(n1CC2)C(=O)N(C(C)(C)C)CCCC3 [Compound 26c1, 9-tert-butyl-3-methoxy-N^2-(2-morpholinoethyl)-14-(thiophen-2-yl)-5,6,10,11,12,13-hexahydroazocino[4′,3′:4,5]pyrrolo[2,1-a]isoquinolin-8(9H)-one-2-carboxamide]
37.2 | COC(=O)[C@@H]1CCCN1C(=O)c1cc2c(cc1OC)CCn1c3c(c(-c4cccs4)c1-2)CCCCN(C(C)(C)C)C3=O [Compound 26c2, (S)-9-tert-butyl-3-methoxy-14-(thiophen-2-yl)-5,6,10,11,12,13-hexahydroazocino[4′,3′:4,5]pyrrolo[2,1-a]isoquinolin-8(9H)-one-2-carbonyl(1-pyrrolidinyl-2-carboxylate) methyl ester]
27.5 | COc1cc2c(cc1C(=O)N1CCC[C@H]1CO)-c1c(-c3cccs3)c3c(n1CC2)C(=O)N(C(C)(C)C)CCCC3 [Compound 26c3, (S)-9-tert-butyl-3-methoxy-2-(2-hydroxymethyl-1-pyrrolidinylcarbonyl)-14-(thiophen-2-yl)-5,6,10,11,12,13-hexahydroazocino[4′,3′:4,5]pyrrolo[2,1-a]isoquinolin-8(9H)-one]
